The text below walks through data of patent US11491178B2, “Chitosan covalently linked with small molecule integrin antagonist for targeted delivery” (Hoffmann-La Roche Inc., priority 2012, dated 2022).

The target of this assay is T1, VLA-4 (α4β1) (Homo sapiens, UniProt P05556+P13612).
T1 construct: Jurkat cells express high levels of VLA-4 on their membrane surface; host or cells: Jurkat Clone E6-1
The experiment in a line: VLA-4 (α4β1) binding assay: Jurkat cell adhesion to VCAM-1-coated plates. The format is cell-based. Here is the method:
Chitosan covalently linked with small molecule α4β1 antagonists having the general structure of formula IA below were assessed for their α4β1 (VLA-4) binding affinity:
The following adhesion assay has been reported previously and used in this invention with minor modification. See U.S. Pat. Nos. 6,229,011 and 6,380,387 both of which are incorporated herein by reference in their entirety. […] Each assay was conducted in a 96-well plate with VCAM-1 used as the counter ligand for the cells (i.e., VCAM-1 was bound to the surface of the wells).
More specifically, 96-well high-binding F96 Maxisorp immuno microtiter plates (Nunc) were coated overnight with 25 ng/well of VCAM-1. […]
To assess VLA-4 inhibition by the VLA-4 targeted chitosans (from the examples), Jurkat cells (expressing high levels of VLA-4) were added to the VCAM-1-coated plates to a final concentration of 2×10^5 cells/well in 96-well plates and allowed to incubate with the test chitosans (from the examples) for 45 minutes at 37° C. After removing unbound cells by gently washing the wells with PBS, the fluorescence signal from the bound cells was read on a Tecan Safire2 microplate reader at 450 nm. Points were plotted and the IC50s of each derivatized chitosan polymer were determined by regression analysis using the linear portion of the concentration-response curve.

Read-outs that look alike come from different tables or passages of the source.

T1 sequence (P13612 34-1032): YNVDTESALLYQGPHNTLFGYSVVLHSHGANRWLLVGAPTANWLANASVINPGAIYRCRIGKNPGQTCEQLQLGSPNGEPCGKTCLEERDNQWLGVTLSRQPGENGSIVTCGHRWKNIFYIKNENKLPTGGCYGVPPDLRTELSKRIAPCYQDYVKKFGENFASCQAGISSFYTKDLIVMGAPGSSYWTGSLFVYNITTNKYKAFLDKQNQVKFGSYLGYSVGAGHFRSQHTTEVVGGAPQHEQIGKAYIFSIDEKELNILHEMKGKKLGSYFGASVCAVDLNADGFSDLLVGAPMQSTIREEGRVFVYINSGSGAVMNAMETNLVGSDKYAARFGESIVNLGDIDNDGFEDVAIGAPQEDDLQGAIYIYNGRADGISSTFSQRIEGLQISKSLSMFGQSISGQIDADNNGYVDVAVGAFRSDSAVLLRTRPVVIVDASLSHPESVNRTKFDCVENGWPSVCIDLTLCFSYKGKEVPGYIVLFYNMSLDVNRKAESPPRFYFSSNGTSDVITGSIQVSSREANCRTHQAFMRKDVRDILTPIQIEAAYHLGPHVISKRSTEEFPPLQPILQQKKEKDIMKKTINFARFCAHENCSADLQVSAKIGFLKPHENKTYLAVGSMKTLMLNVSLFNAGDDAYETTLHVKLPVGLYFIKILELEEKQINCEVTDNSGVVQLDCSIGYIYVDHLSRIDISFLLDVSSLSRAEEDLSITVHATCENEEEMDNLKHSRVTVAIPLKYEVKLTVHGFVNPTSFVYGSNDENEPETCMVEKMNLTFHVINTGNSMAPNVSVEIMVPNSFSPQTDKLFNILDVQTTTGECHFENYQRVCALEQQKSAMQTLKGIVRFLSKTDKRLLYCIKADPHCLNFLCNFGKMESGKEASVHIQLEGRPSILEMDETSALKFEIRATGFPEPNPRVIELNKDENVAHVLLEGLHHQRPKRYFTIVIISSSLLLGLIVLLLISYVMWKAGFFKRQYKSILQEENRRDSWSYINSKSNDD
T1 sequence (P05556 21-798): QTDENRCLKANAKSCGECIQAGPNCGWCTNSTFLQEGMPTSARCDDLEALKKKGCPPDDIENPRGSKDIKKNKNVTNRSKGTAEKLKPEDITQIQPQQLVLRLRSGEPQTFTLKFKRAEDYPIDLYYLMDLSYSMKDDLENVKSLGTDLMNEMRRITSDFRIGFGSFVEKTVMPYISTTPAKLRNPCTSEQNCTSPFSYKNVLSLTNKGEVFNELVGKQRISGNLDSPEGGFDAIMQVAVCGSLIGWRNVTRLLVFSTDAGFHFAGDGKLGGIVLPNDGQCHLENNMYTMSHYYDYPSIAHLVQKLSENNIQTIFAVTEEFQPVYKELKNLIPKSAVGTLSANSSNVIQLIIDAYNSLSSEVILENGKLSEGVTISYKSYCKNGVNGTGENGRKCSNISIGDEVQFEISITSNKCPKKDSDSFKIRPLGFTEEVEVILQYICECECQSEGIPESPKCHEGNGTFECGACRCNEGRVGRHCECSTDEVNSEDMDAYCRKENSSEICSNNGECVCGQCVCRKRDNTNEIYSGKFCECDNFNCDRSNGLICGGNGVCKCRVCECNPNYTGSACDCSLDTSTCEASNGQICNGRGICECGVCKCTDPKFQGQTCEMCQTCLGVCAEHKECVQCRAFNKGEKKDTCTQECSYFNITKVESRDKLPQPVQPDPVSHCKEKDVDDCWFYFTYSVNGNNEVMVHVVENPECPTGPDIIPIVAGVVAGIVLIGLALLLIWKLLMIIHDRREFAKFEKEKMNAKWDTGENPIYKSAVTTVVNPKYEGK

A word on the IC50: it is the midpoint of a concentration-inhibition curve. In the case of `Cc1cccc(Cl)c1C(=O)NC(Cc1ccc(NC(=O)c2c(Cl)cccc2Cl)cc1)C(=O)O` (centres unmarked) [Control (27), reference compound], the IC50 is 4 nM (Jurkat cells on VCAM-1-coated plates, Mn2+ activated, 45 minutes at 37° C., Table 1, read-out: Binding IC50) and roughly 12 nM (control compound in the Jurkat/VCAM-1 adhesion assay, read-out: IC50).
